This note sets out measurements from the OPERA property sets (Mansouri et al. 2018).

Converted amounts (≈) assume the structure as drawn.

One may read the logP as the decadic logarithm of the partition coefficient of the neutral form, usually between octanol and water. The low end stands for lower lipophilicity, the high end for higher lipophilicity. Broadly, the solubility is the dissolved amount per volume that the medium holds. A low value points to little dissolved substance.

Conditions in one series: not given
In turn, `CCCCOC(=O)C(N)Cc1ccc(O)cc1` (configuration not stated) had a lipophilicity (logP) of 1.8.

`Cn1cnc(I)c1[N+](=O)[O-]` yielded a logP of 1.29. Consider `CCCCC(OC(Cc1ccccc1)C(=O)N1CCC(OCOC)CC1)C(=O)NC(CC1CCCCC1)C(O)CC(C(=O)NCCCNC(C)=O)C(C)C` (configuration not stated), for which the log partition coefficient (logP) came out at 4.3. Still for that read-out and setting: next, `C#CC(C)(C)NC(=O)c1cc(Cl)cc(Cl)c1`: 3.43. In the case of `Oc1ccc(O)cc1`, the solubility worked out at 654 mM (≈ 72000 µg/mL). Regarding `O=P(N1CCCC1)(N1CCCC1)N1CCCC1`, the logP turned out to be 1.67.

Turning to `CC(C)=CC1C(C(=O)OCc2coc(Cc3ccccc3)c2)C1(C)C` (configuration not stated), the logP worked out at 6.14. Still for that read-out and setting: next, `CCCNC(=O)CCC(NS(=O)(=O)c1ccc(C)cc1)C(=O)O` (configuration not stated): 0.02; `CCOCCn1cnc2c(=N)n(C)c(=O)[nH]c21`: -0.4; `NC(=O)C=Cc1ccc([N+](=O)[O-])o1`: 0.65. As for `Cc1nc(N)c2ncn([C@@H]3O[C@H](CO)C[C@@H]3F)c2n1`, the lipophilicity (logP) stood at 0.12. The compound `CC(C)CCCCCCCOP(=O)(Oc1ccccc1)Oc1ccccc1` had a logP of 5.44.

Take `CCC(Oc1ccc(Cl)cc1C)C(=O)O` (configuration not stated): the logP turned out to be 3.47.

`NS(=O)(=O)c1cc(C2(O)NC(=O)c3ccccc32)ccc1Cl` (configuration not stated) registered a logP of 0.85.

Take `c1ccc2c(c1)ccc1ccccc12`: the solubility came to 0.00645 mM (≈ 1.15 µg/mL). `CC(C)(C)c1cccc(OP(=O)(Oc2ccccc2)Oc2ccccc2)c1` registered a logP of 5.12. Compound `CC(=O)OCN1Cc2ccccc2C1=O` had a logP of 0.99. Compound `CCNc1nc(N)nc(Cl)n1` showed a lipophilicity (logP) of 1.15 and a solubility of 3.86 mM (≈ 670 µg/mL). `CCCCC(=O)OCN1C(=O)NC(c2ccccc2)(c2ccccc2)C1=O`: the logP is 3.9. Same read-out and setting: next, `c1ncncn1`: 0.12. The compound `CC1(C2=CCCCC2)C(=O)NC(=O)NC1=O` had a logP of 1.6. The same measure, in the same setting: in the case of `CCN(CC)CCN=c1cc2n(-c3ccc(Cl)cc3)c3ccccc3nc-2cc1Nc1ccc(Cl)cc1` it was 7.97. `O=[N+]([O-])c1cccc(O)c1` registered a solubility of 97.1 mM (≈ 13500 µg/mL). `CC(C)OC(C)C` came in with a logP of 1.52. `CC(C)N(C(=O)SCC(Cl)=CCl)C(C)C`: the logP amounted to 4.49. On the same count and under the same terms, in the case of `CCN(CC)C(=O)CCC(=O)OCn1ncc2c(O)ncnc21` it was -0.22. The same measure, in the same setting: next, `O=c1[nH]cnc2c1ncn2C1CC(O)C(CO)O1` (configuration not stated): -1.71.

Compound `CNC(=O)Oc1cccc2c1OC(C)(C)C2` registered a solubility of 1.45 mM (≈ 320 µg/mL). The compound `OCc1cc(Cl)cc(Cl)c1` came in with a logP of 2.9. Take `CCCCN(CCOC(C)=O)c1ccc(N=Nc2c(C#N)cc([N+](=O)[O-])cc2C#N)c(C)c1`: the logP was 5.5 and the solubility was 1.32e-06 mM (≈ 0.00059 µg/mL). As for `CC(=O)OCN1C(=O)C2CC=CCC2C1=O` (configuration not stated), the logP turned out to be 0.97. The same measure, in the same setting: in the case of `COc1ccc2c3c1O[C@H]1[C@@H](O)C=C[C@H]4[C@@H](C2)NCC[C@@]341` it was 0.69; in that of `COCC(C)OC(=O)C(N)Cc1ccc(O)c(O)c1` (configuration not stated), 0.08. Consider `N#Cc1cc(I)c(O)c(I)c1`, for which the logP came to 3.43. `c1ccc2c(c1)sc1ccccc12` registered a solubility of 0.00798 mM (≈ 1.47 µg/mL). `Cc1ncc(CO)c(C=O)c1O` had a solubility of 2990 mM (≈ 500000 µg/mL).

The compound `CN(C)c1cccc([N+](=O)[O-])c1` came in with a logP of 2.16. As to `COC(=O)c1ccc(Cl)cc1`, the log partition coefficient (logP) was 2.87. Turning to `C=CC(=O)NCCCN(CCO)CCO`, the log partition coefficient (logP) is -0.6.

`CN(C)P1(=O)N(C)CCN1C` had a log partition coefficient (logP) of 0.02. The same measure, in the same setting: in the case of `Cc1nc(NCCCO)c(C#N)cc1-c1ccccc1` it was 2.72; in that of `NC(=S)Nc1cccc2ccccc12`, 1.65. On to `Nc1cccc(Cl)c1`, for which the solubility was determined as 42.3 mM (≈ 5400 µg/mL). As for `Nc1nc(=O)n([C@@H]2CS[C@H](CO)O2)cc1F`, the logP is -0.43. Same read-out and setting: in the case of `Cc1ncc([N+](=O)[O-])n1C` it was 0.31. As to `COc1ccc(N=C=S)cc1`, the lipophilicity (logP) was determined as 3.58. The same measure, in the same setting: next, `COCCOCCOC`: -0.36; `c1ccc2cc3c4ccccc4c4ccccc4c3cc2c1`: 6.41; `N#CC(C#N)=Cc1ccc(Br)o1`: 2.16. The same measure, in the same setting: in the case of `CCC(=O)n1ncc2c(O)ncnc21` it was 0.3; in that of `O=C(O)/C=C/C(=O)c1cccnc1`, 0.26; in that of `O=[N+]([O-])c1cccc2c1-c1cccc3c([N+](=O)[O-])ccc-2c13`, 4.44. Still for that read-out and setting: next, `Nc1c(OC2C=CC(N3CCCCCC3=O)=CC2)cc(O)c2c1C(=O)c1ccccc1C2=O` (configuration not stated): 5.3; `CCO[C@H]1O[C@@H]2OC3(C)CC[C@H]4[C@H](C)CC[C@@H]([C@H]1C)[C@@]24OO3`: 3.89; `CC(N)CCc1ccccc1` (configuration not stated): 2.12. `Cc1ccc(C(C)C)c(OCCN(C)C)c1` yielded a logP of 3.79. Same read-out and setting: next, `ClC1=C(Cl)C2(Cl)C(CBr)CC1(Cl)C2(Cl)Cl` (configuration not stated): 5.9; `COc1cc(OC)ncn1`: 0.96. Compound `Cc1ccc(O[Si]23OCCN(CCO2)CCO3)cc1` showed a lipophilicity (logP) of 0.08. On the same count and under the same terms, in the case of `Clc1ccc(Nc2cc3nc4ccccc4n(-c4ccc(Cl)cc4)c-3cc2=NCCCN2CCCCC2)cc1` it was 8.18. Take `Clc1ccc(-c2ccccc2Cl)cc1Cl`: the lipophilicity (logP) was found to be 5.87. The same measure, in the same setting: next, `CC(C)(C)[N+]([O-])=Cc1ccc(F)cc1`: 1.42; `CC(CCC(=O)O)C1CCC2C3C(O)CC4CC(O)CCC4(C)C3CCC12C` (configuration not stated): 3; `C[C@H](CCC(=O)O)[C@H]1CC[C@H]2[C@@H]3CC[C@@H]4C[C@H](O)CC[C@]4(C)[C@H]3C[C@H](O)[C@]12C`: 3.5.

The series is the same for the next values; noted with them: 22.0 °C.
`COC(F)(F)C(F)(F)C(F)(F)C(F)(F)F` registered a log10 OH rate constant (cm³/molecule/s) of -14.1.

Staying with this series, now noted: 23.0 °C.
`c1ccc2c(c1)ccc1ccccc12` displayed a log10 OH rate constant (cm³/molecule/s) of -10.9.

As to `CC(=O)C1CC=C(C)CC1` (configuration not stated), the log10 OH rate constant (cm³/molecule/s) was -9.89.

The same series, now with this note: 24.0 °C.
`c1ccc2c(c1)sc1ccccc12` had a log10 OH rate constant (cm³/molecule/s) of -11.1.

The same series, now with this note: 25 °C.
For the compound `BrC1CCCCC1`, the solubility was 5.08 mM (≈ 828 µg/mL). On the same count and under the same terms, in the case of `CCOC` it was 832 mM (≈ 50000 µg/mL). `CC(=O)c1ccc(-c2ccccc2)cc1` showed a solubility of 0.489 mM (≈ 96 µg/mL).

For `COC(=O)COc1ccc(Cl)cc1Cl`, the solubility was determined as 1.1 mM (≈ 258 µg/mL).

In the case of `CC(C)N(C(=O)SCC(Cl)=CCl)C(C)C`, the solubility is 0.0518 mM (≈ 14 µg/mL). Compound `CC(=O)N(C)N=O` came in with a solubility of 170 mM (≈ 17400 µg/mL).

In the case of `CCCCCOC(=O)CC`, the solubility is 5.62 mM (≈ 810 µg/mL).

With `Clc1cc(Cl)c(Cl)cc1Cl`, the solubility amounted to 0.00276 mM (≈ 0.595 µg/mL). On the same count and under the same terms, next, `CCCCOCCOC(=O)COc1ccc(Cl)cc1Cl`: 0.0374 mM (≈ 12 µg/mL).

In turn, `Cc1cccc(C)c1` registered a solubility of 1.52 mM (≈ 161 µg/mL). For `Cc1c2ccccc2c(C)c2c1ccc1ccccc12`, the solubility was 0.000152 mM (≈ 0.039 µg/mL).

On to `Cc1ccc2cc3ccc4ccccc4c3cc2c1`, for which the solubility stood at 0.000227 mM (≈ 0.055 µg/mL). `Cc1cc(Cl)ccc1O` came in with a solubility of 28.1 mM (≈ 4000 µg/mL).

With `CCCCCCC(C)O` (racemic), the solubility amounted to 9.2 mM (≈ 1200 µg/mL).

Staying with this series, now noted: 25.0 °C.
`CCCCCBr` gave a log10 OH rate constant (cm³/molecule/s) of -11.4. The same measure, in the same setting: next, `C/C(C=O)=C\C=C\C=O`: -9.93; `CCBr`: -12.5. `CNC(=O)OC` returned a log10 OH rate constant (cm³/molecule/s) of -11.4. The same measure, in the same setting: in the case of `Clc1c(Cl)c(Cl)c(Cl)c(Cl)c1Cl` it was -13.6.

The series is the same for the next values; noted with them: 27.0 °C.
Take `Cc1ccc(O)c(O)c1`: the log10 OH rate constant (cm³/molecule/s) was -9.81.

As for `Oc1ccccc1O`, the log10 OH rate constant (cm³/molecule/s) is -9.98. On the same count and under the same terms, in the case of `Cc1ccc(C)o1` it was -9.88.
